Legend:
CYP2D6 = molecular target: T1, CYP2D6 (Homo sapiens, UniProt P10635); experiment: Fluorometric CYP450 enzyme inhibition assay, CYP2D6; format: in vitro ADME; details: n = 2 (2k n = 4)
T1 construct: purchased Corning; host or cells: insect cells (microsomes)

[1] = Liver microsome stability, human; format: in vitro ADME; details: for microsomal CLint at 3 μM: human liver microsomes; for half-life at 3 μM / remaining at 0.5 h, 3 µM: liver microsomes; for half-life at 3 μM: incubation up to 30 min, read-out: liver microsome stability T1/2, human; for remaining at 0.5 h, 3 µM: over the assay time course (30 min), read-out: % remaining, human LMs
Method: Human liver microsomes (HLMs, 20 mg/mL) and CD-1 mouse liver microsomes (MLMs, 20 mg/mL) were purchased from Xenotech. NADPH was purchased from Sigma-Aldrich and prepared in 10 mM stock solutions of distilled H2O (Invitrogen UltraPure). Verapamil and diphenhydramine were both purchased from Sigma-Aldrich and served as positive controls for HLM and MLM stability, respectively. Test compounds and positive controls were initially dissolved in DMSO to make 10 mM stock solutions. Sample solutions were then further diluted in 70% MeOH/H2O or 100% MeCN to 500 μM. Next, the reactions were prepared by mixing human or mouse liver microsomes (55 μL) with potassium phosphate buffer (100 mM, […]) in 1.5 mL Eppendorf tubes. The test compounds (6.6 μL of 500 μM solution) were subsequently added to the suspensions, and the reaction mixtures were incubated at 37 °C for 5 min. Afterward, the liver microsome reactions were initiated with 110 μL of 10 mM NADPH and further incubated at 37 °C for the designated time course of the study. This procedure provided experiments with a final volume of 1100 μL (<0.6% organic solvent content), a concentration for HLMs and MLMs of 1 mg/mL, and a final test compound concentration of 3 μM. Aliquots (100 μL) were removed from each reaction mixture in duplicate at 0, 5, 10, 15, and 30 min time intervals and quenched with 100 μL of cold internal standard solution (ISTD, 2 μM 7-ethoxy-d5-coumarin in MeOH or MeCN). Quenched aliquots were then centrifuged at 12 500 g for 5–10 min, and the resulting supernatants were withdrawn and placed in LC-MS vials to be analyzed by LC-MS/MS (Agilent G6460C QQQ MS coupled with an Infinity II 1260 HPLC). Each test compound was run in tandem with positive and negative control experiments for quality assurance. Positive control reactions were conducted at a final volume of 550 μL for a single run at each time point. Lastly, the negative control experiment was conducted with test compounds and liver microsomes in the absence of NADPH (150 μL) and analyzed at the 30 min time point.
For both LM and plasma assays, each data point was analyzed in triplicate using between blank washes to avoid carry over and to equilibrate the column for the subsequent runs. Averages of these triplicates for individual compounds at each time point were then normalized to the data at 0 min, representing 100% of the test compound remaining or 0% metabolism. Half-lives (t1/2) were calculated by plotting ln of % test compound remaining versus time and performing linear regression to determine slope. Slope = −k and t1/2 = 0.693/k for first-order kinetics (see Figures S5 and S6 for a representative example).

[2] = Kinetic solubility in PBS (nephelometer); format: physicochemical; details: Dulbecco's phosphate-buffered saline (DPBS), 25 °C, pH 7.2, aqueous buffer, kinetic from dmso stock, 1% DMSO, room temperature, n = 7
Description: Anticipating that the carboxylate side chain may hinder BBB penetrance, we synthesized and biologically screened a series of 2i prodrugs with ester and amide masking groups. With the classical physiochemical parameters required for brain exposure (i.e., molecular weight, MW, lipophilicity, and topological polar surface area, TPSA) and drug release mechanisms beyond the BBB in mind, we focused on simple alkyl-based promoieties. Our selected lead compound (2i), a close analogue (2a), and their corresponding prodrugs (2l–r) were studied in vitro to ascertain drug solubility, metabolic stability in liver microsomes (LMs), plasma stability, mouse brain homogenate stability, and cytochrome P450 (CYP450) inhibition (Tables S3 and S4 for predicted absorption, distribution, metabolism, and excretion or ADME parameters). […]
Methods for Kinetic Solubility Experiments
The test compounds were first dissolved in DMSO to provide stock solutions of either 30 mM or 60 mM. Kinetic solubility experiments were then performed in a 96-well microtiter plate (Clear-Bottom, Black, Corning® Costar) with a final volume of 250 µL per well in rows B-H. Each plate was initially prepared with the addition of 16 μL of DMSO to well A3, 20 μL to well A4, 27 μL to well A5, and 40 μL to all remaining wells in row A (A1 and A6-12). Next, the test compound (30 μL of DMSO stock solution) was directly added to well A2 without further modification. Moreover, the test compound (64 μL of DMSO stock solution) was diluted in well A3 to give a total volume of 80 μL. Further dilutions were then conducted by removing 60 µL from well A3 and adding it to A4, followed by removing 53 µL from well A4 and adding it to A5, followed by removing 40 µL from well A5 and adding it to A6, and sequentially removing 40 µL from the remaining wells up to A12. Well A1 served as a DMSO blank.
The sample solutions prepared in row A (2.5 µL from each well) were transferred to the corresponding wells in rows B-H. Dulbecco’s phosphate-buffered saline (DPBS, Gibco®, 1X, no Ca2+ and Mg2+, pH […]
7.1-7.3) was then added to all wells in rows B-H (30 µL each), and the 96-well plate was incubated at 25 °C for 1 min. Next, DPBS (217.5 µL) was added to all wells in rows B-H, and the 96-well plate was once more incubated at 25 °C for 2 h. This procedure provided seven replicate experiments with final concentrations of the test compound (1% DMSO in DPBS) ranging from either 300 to 0.9375 µM or 600 to 1.875 µM in rows B-H, depending on the whether a 30 mM or 60 mM DMSO stock solution was used, respectively (i.e. a 100-fold dilution from sample preparation in row A). After incubation, the plates were analyzed using a NEPHELOstar® microplate reader, and the segmental linear regression data was processed with MARS analysis software (BMG LabTech, see Supplemental Figure S4A for a representative example). […]
Synergy-S diffractometer. The crystal was kept at a steady T = 100.0(3) K during data collection. The structure was solved with the ShelXT 2018/2 (Sheldrick, 2015, Bauer and Gotz, 2021) solution program using dual methods and by using Olex2 1.5-alpha (Dolomanov et al., 2009) as the graphical interface.
The model was refined with olex2.refine 1.5-alpha (Bourhis et al., 2015) using full matrix least squares […]
which were used in all calculations. The final wR2 was 0.0983 (all data) and R1 was 0.0412 (I≥2 s(I)).

T1 sequence (P10635 whole entry): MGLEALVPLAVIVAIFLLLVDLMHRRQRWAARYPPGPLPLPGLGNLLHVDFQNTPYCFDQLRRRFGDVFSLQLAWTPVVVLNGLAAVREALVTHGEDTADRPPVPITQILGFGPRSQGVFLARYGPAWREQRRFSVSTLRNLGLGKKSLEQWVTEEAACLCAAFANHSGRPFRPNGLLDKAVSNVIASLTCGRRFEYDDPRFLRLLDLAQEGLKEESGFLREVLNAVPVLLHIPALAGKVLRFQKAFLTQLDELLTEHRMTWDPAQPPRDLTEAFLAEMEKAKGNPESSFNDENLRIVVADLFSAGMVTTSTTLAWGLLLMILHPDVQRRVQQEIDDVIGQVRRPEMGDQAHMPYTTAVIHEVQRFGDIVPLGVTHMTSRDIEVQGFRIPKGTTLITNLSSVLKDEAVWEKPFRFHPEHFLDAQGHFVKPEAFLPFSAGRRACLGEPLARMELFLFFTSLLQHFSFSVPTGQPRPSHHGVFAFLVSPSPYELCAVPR

SMILES	IC50 (CYP2D6) [µM]	microsomal CLint at 3 μM [1] [µL/min/mg]	half-life at 3 μM [1] [min]	remaining at 0.5 h, 3 µM [1] [%]	solubility kinetic at 2 h [2] [µM]
O=C(O)CCC(=O)N1N=C(c2c(-c3ccc(Cl)cc3)c3ccccc3[nH]c2=O)CC1c1ccc(Cl)cc1 (stereo not shown) [2a]	18 ± 0.8	< 23	> 30	> 95	~208
CC(C)OC(=O)CC(F)(F)C(=O)N1N=C(c2c(-c3ccc(Cl)cc3)c3ccccc3[nH]c2=O)CC1c1ccc(Cl)cc1 (stereo not shown) [2m]	> 20	173	4		43 ± 10
O=C(CC(F)(F)C(=O)N1N=C(c2c(-c3ccc(Cl)cc3)c3ccccc3[nH]c2=O)CC1c1ccc(Cl)cc1)OCC1CC1 (stereo not shown) [2n]	> 20	289	2.4		27 ± 9
CC(C)(C)COC(=O)CC(F)(F)C(=O)N1N=C(c2c(-c3ccc(Cl)cc3)c3ccccc3[nH]c2=O)CC1c1ccc(Cl)cc1 (stereo not shown) [2o]	> 20	187	3.7		52 ± 6.3
O=C(CC(F)(F)C(=O)N1N=C(c2c(-c3ccc(Cl)cc3)c3ccccc3[nH]c2=O)CC1c1ccc(Cl)cc1)OCc1ccccc1 (stereo not shown) [2p]	> 20	105	6.6		40 ± 12
CN(C)C(=O)CC(F)(F)C(=O)N1N=C(c2c(-c3ccc(Cl)cc3)c3ccccc3[nH]c2=O)CC1c1ccc(Cl)cc1 (stereo not shown) [2r]	> 20	165	≤ 7		43 ± 5.1

Continued, values first:

IC50 (CYP2D6) [µM]	microsomal CLint at 3 μM [1] [µL/min/mg]	half-life at 3 μM [1] [min]	remaining at 0.5 h, 3 µM [1] [%]	solubility kinetic at 2 h [2] [µM]	SMILES
> 20	< 23	> 30	> 95	~38	O=C(O)CC(F)(F)C(=O)N1N=C(c2c(-c3ccc(Cl)cc3)c3ccccc3[nH]c2=O)CC1c1ccc(Cl)cc1 (stereo not shown) [2i]
> 20	< 23	> 30	> 90	~30	NC(=O)CC(F)(F)C(=O)N1N=C(c2c(-c3ccc(Cl)cc3)c3ccccc3[nH]c2=O)CC1c1ccc(Cl)cc1 (stereo not shown) [2k]
> 20	193	3.6		43 ± 18	CCOC(=O)CC(F)(F)C(=O)N1N=C(c2c(-c3ccc(Cl)cc3)c3ccccc3[nH]c2=O)CC1c1ccc(Cl)cc1 (stereo not shown) [2l]
> 20	104	≤ 7		52 ± 13	CNC(=O)CC(F)(F)C(=O)N1N=C(c2c(-c3ccc(Cl)cc3)c3ccccc3[nH]c2=O)CC1c1ccc(Cl)cc1 (stereo not shown) [2q]

Source: publication PMC10485906, “Development of a Dihydroquinoline–Pyrazoline GluN2C/2D-Selective Negative Allosteric Modulator of the N-Methyl-D-aspartate Receptor” (ACS Chemical Neuroscience, 2023)
